Values joined by “and” are separate entries in the source; they are usually repeats but may differ in a detail not shown here. Identical values can stand only once. “Also recorded” adds a separate entry of the source.
Assays:
antibody (HYB 273-1) [1] = assay: Competitive ELISA for BAM on plates covalently (photocoupled) coated with BAM-OA-AQ; format: binding, mice; details: for cross-reactivity (IC50 of BAM divided by IC50 of analyte, times 100): analytes assayed up to 100 mg/L, antibody HYB 273-1
Procedure: A PolySorp™ microtitre plate was filled by a stationary dispensor with 200 μL/well BAM-OA-AQ (50 ng/mL) in 0.1×PBS. After being exposed to uv-light (300-400 nm) at 34° C. for 30 min, the plate was washed 4 times with de-ionised water and dried 30 min at 37° C. The plate was either used immediately or sealed with tape lid and stored at room temperature in the dark until use.
(§1) Standards (in Milli-Q® water) and samples (150 μL) were added to the hapten-coated plate followed by the addition of 50 μL antibody (HYB 273-1) diluted in 10×PBST (66.7 ng/mL). The plate was incubated for 1 hour. After washing 4 times with PBST, the plate was incubated with 200 μL/well RαM^HRP diluted 1:1000 in PBST. After a final 6 times wash with PBST, 200 μL/well TMB-Plus was added. The colour development was stopped after 10 minutes by adding 50 μL/well 1 M H2SO4 and the absorbance was read at 450 nm.
(§2) The standards were used to generate a semi-log graph based on the 4-parameter-logistic method (Rodbard, 1974: equation 1), followed by calculation of sample values. [formula]
(§3) To compare the performances of the two ELISA methods with antigen coated by passive adsorption to that by covalent immobilisation respectively, standard curves were generated with BAM standards ranging from 0.0156 to 2 μg/L on each surface using the identical assay procedures. The data were normalised by the % B/B0 transformation (eq 2). The normalised data were then plotted vs. BAM concentration and the four-parameter-logistic equation (eq 1) was fitted to the experimental points (FIG. 3).
As to detection limits (defined as the analyte concentration giving a 15% decrease in maximum signal: DL15) and sensitivity (defined as the analyte concentration giving a 50% decrease in maximum signal: IC50) the two surface performs almost equally. […] Further development of the BAM assay was therefore based on this technology and the following results are generated on PolySorp™ microtire plates covalently coated with BAM-OA-AQ as described herein in the Preparation of plates section

[2] = Immunisation of mice with hapten-polymer carrier complex, raising of monoclonal antibodies; format: in vivo; details: hapten coupled to polymer carrier (ovalbumin)
Procedure: Live mice were primed for immunisation by an intraperitoneal injection of live BCG-vaccine one month before immunisation. The antigen (hapten-OA complex), once adsorbed onto Al(OH)3, was injected intraperitonally and test bleeding were collected. When antibody titre's exceeded 1:2000, mice were considered ready for fusion and the method described by Köhler and Milstein (1975) was employed with minor modifications. Monoclonal antibodies were selected on basis of titre, affinity and specificity. Selected clones were recloned until monoclonality and stored frozen at −80° C.
Ten to twelve weeks old female Balb/cxCF1 F1-hybrid mice were used for immunisation. One month before immunisation they were primed with 0.2 mL live BCG-vaccine intraperitonally. The antigen (25×carrier/immunogen) was absorbed onto Al(OH)3 as an adjuvant. The total volume of vaccine per immunisation was 200 μL, containing 25× of antigen and […] of adjuvant. The antigen was injected intraperitonally with 2-weeks intervals. Test bleedings were collected 10 days after immunisation and assayed in ELISA.
When antibody titre's exceeded 1:2000, mice were regarded ready for fusion. The procedure as described by Köhler and Milstein (1975) was employed with minor modifications. Monoclonal antibodies were selected on basis of titre, affinity and specificity. […]

antibody (HYB 273-1) [3] = assay: Competitive ELISA for BAM on plates coated with BAM-OA by passive adsorption; format: binding, mice; details: FIG. 3B
Procedure: i) Passive adsorption: A MaxiSorp™ microtitre plate was filled by a stationary dispensor with 200 μL/well BAM-OA (16.7 ng/mL) in coating buffer. After coating over night at 4° C. the plate was washed 4 times with de-ionised water and dried 30 min at 37° C. The plate was either used immediately or sealed with tape lid and stored at room temperature in the dark until use.
as §1, §2
as §3, with “The normalised data were then plotted vs. BAM concentration and the four-parameter-logistic equation (eq 1) was fitted to the experimental points (FIG. 3).” left out

Row | Compound | cross-reactivity (IC50 of BAM divided by IC50 of analyte, times 100) (antibody (HYB 273-1) [1]) | immunoresponse on immunisation with the hapten [2] | also measured
1 | NC(=O)c1ccc(Cl)cc1Cl [2,4-dichlorobenzamide] | 3.8% |  | 
2 | N-(5-carboxypentyl)-2,4-dichloro-3-amido aniline [EQ-0031] |  | good responses were generated; also recorded: generated good immunoresponse | 
3 | NC(=O)c1c(Cl)cccc1Cl [BAM, 2,6-dichlorobenzamide] |  |  | DL15 (detection limit, analyte concentration giving a 15% decrease in maximum signal) (antibody (HYB 273-1) [3]; passive adsorption): 0.045 µg/L; IC50 (analyte concentration giving a 50% decrease in maximum signal) (antibody (HYB 273-1) [3]; passively adsorbed plates (MaxiSorp)): 0.144 ng/mL and 0.14 ng/mL; IC50 (analyte concentration giving a 50% decrease in maximum signal) (antibody (HYB 273-1) [1]; covalently immobilised plates (PolySorp, photocoupled), FIG. 3A): 0.189 ng/mL and 0.19 ng/mL; DL15 (detection limit, analyte concentration giving a 15% decrease in maximum signal) (antibody (HYB 273-1) [1]; photo catalysed covalent immobilisation, FIG. 3A): 0.02 µg/L
4 | N#Cc1c(Cl)cccc1Cl [dichlorbenil, dichlorobenzonitrile] | no measurable cross-reactivity |  | 
5 | O=C(CCCCCNC(=O)c1c(Cl)cccc1Cl)ON1C(=O)CCC1=O [EQ-0025, succinimidyl-N-(2,6-dichlorobenzoyl)-6-amino-hexanoate] |  | able to induce strong immunoresponse | 
